# Assay results as given in US10450336B2 (Los Alamos National Security, LLC, priority 2014, dated 2019).
# Assay: radiolabeling kinetics of the ligands with Bi-207 (radio-TLC)
# Conditions: bismuth complexation, comparison among the four ligands
# Description: The radiolabeling kinetics of the ligands L^py, L^pyd, L^pyr, and L^pz with bismuth ions was examined using Bi-207 (t1/2=32 years) because it has a much longer half life than Bi-213. Solutions having concentrations of 1, 10, 100, and 1000 micromolar (“μM”) of each of the ligands were prepared. Each solution was combined with 3 kBq of Bi-207. The reaction temperature was ambient room temperature (21±2° C.). Aliquots of each reaction mixture were obtained during the reaction and analyzed by radio-TLC. The rates of reaction (i.e. the radiolabeling kinetics) between the bismuth ions and the ligands were dependent on the individual ligand and also on the concentration of the ligand. At a ligand concentration of 1 μM, a maximum of 50% labeling was observed after 60 minutes. At a ligand concentration of 1000 micromolar, the reaction was nearly 100% complete (i.e. 100% of the ligand was labeled with Bi-207) after 5 minutes. FIG. 3 provides a graph of the radiolabeling kinetics for the four ligands at a ligand concentration of 100 μM. […] By comparison, chelation of Bi-213 with the known ligands DOTA and CHX-DTPA requires heating to 90° C.
smiles,measurement,value
"c1cnc(CN2CCN(Cc3cnccn3)CCN(Cc3cnccn3)CCN(Cc3cnccn3)CC2)cn1 [L^py, 1,4,7,10-Tetrakis(2-pyrazinylmethyl)-1,4,7,10-tetraazacyclododecane, reference compound]",complexation kinetics (relative),slowest
